Results on eleven compounds are retold here after US4391978A, “Phenyl-quinolizidines” (Hoffmann-La Roche Inc., priority 1980, dated 1983).

The subject of assay [1] is rats trained to jump up on a vertical isolated pole. As to the kind of experiment: Pole Climbing Test (rat): inhibition of conditioned (BCR) and unconditioned (BUR) reaction. It counts as in vivo. Conditions: ip; for ED50: inhibition of conditioned reaction in 50% of the animals, observation time 6 hours; for ED10: inhibition of unconditioned reaction, ED10, i.p. The method, then:
"Pole Climbing" Test (rat)
For this experimental procedure there was used per dosage a group of 10 rats trained to jump up on a vertical isolated pole in the experimental cage, to escape an electroshock (unconditioned stimulus) produced via the lattice floor immediately after an acoustic signal (conditioned stimulus). The inhibition of the conditioned reaction in the case of 50% of the animals during an observation time of 6 hours is determined by the parameter ED 50 BCR, the inhibition of the unconditioned reaction is determined by the parameter ED 10 BUR.

Assay [2] deals with T1, receptor, calf striatum ([^3 H]-spiroperidol) (Bos taurus, UniProt P20288).
T1 construct: calf striatum was used as the receptor; from tissue; host or cells: calf striatum
Description: Spiroperidol-Binding Test (in vitro).

For assay [3], the system named is apomorphine-induced vomiting (dog). Description: Antiemetic Activity (dog): apomorphine-induced vomiting. It counts as in vivo, dog (Beagle hounds). The note with it: Canis lupus familiaris, po, 1 hour before apomorphine hydrochloride 0.1 or 0.3 mg/kg s.c., 50% of animals protected, read-out: Anti-apomorphine emesis ED50 p.o.
Setting [4] is: 50% detachment of specific binding of [^3 H]-spiroperidol, calf striatum, in vitro, read-out: Spiroperidol-Binding IC50.

Counter-ions that a name gives are not always drawn. Like-named read-outs stand apart in the source and are kept apart here. Bounds are passed on as bounds.

T1 sequence (P20288 whole entry): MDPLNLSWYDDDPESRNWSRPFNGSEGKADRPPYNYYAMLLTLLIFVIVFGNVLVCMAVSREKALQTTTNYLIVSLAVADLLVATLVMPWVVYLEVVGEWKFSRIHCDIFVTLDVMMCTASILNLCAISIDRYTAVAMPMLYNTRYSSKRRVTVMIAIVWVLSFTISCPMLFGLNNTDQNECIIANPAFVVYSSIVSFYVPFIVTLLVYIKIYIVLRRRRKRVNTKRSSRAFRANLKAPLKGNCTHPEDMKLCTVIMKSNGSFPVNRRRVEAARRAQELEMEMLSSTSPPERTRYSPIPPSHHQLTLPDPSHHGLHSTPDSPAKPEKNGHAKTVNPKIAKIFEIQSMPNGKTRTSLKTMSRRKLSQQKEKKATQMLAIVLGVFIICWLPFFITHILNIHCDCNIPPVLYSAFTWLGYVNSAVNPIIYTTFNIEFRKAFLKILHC

Turning to `N#Cc1ccc2c(c1)[nH]c(=O)n2[C@@H]1CCN2C[C@@H](c3ccccc3F)CC[C@@H]2C1` (relative stereo) [rac-1-[(9aβH)--7β-(o-Fluorophenyl)-octahydro-2H--quinolizin-2α-yl]-5-cyano-2-benzimidazolinone.HCl], in assay [1], the 50% effect level (ED50) was put at a dose of 0.65 mg/kg and the ED10 turned out to be 1 mg/kg. Further, the half-maximal inhibitory concentration (IC50) in assay [2] is 0.05 µM.
Taken in the same sequence, the figures for `O=c1[nH]c2cc(Br)ccc2n1[C@@H]1CCN2C[C@@H](c3ccccc3F)CC[C@@H]2C1` (relative stereo) [rac-1-[(9aβH)--7β-(o-Fluorophenyl)-octahydro-2H--quinolizin-2α-yl]-5-bromo-2-benzimidazolinone.HCl] were 0.08 mg/kg, 0.1 mg/kg and 0.0038 µM.
Consider `CCS(=O)(=O)c1ccc(OC)c(C(=O)N[C@@H]2CCN3C[C@@H](c4ccccc4Cl)CC[C@@H]3C2)c1` (relative stereo) [rac-N-((9aβH)-7β-(o-chlorophenyl)octahydro-2H-quinolizin-2α-yl)-5-(ethylsulfonyl)-o-anisamide], for which the ED50 was found to be 10 mg/kg in assay [1] and 0.38 mg/kg in assay [3]. For the same compound, the ED10 in assay [1] is 10 mg/kg. In addition, the IC50 in assay [2] (setting [4]) was determined as 0.135 µM.
Turning to `O=C(N[C@@H]1CCN2C[C@@H](c3ccccc3Cl)CC[C@@H]2C1)c1cccs1` (relative stereo) [rac-N-((9aβH)-7β-(o-chlorophenyl)octahydro-2H-quinolizin-2α-yl)-2-thiophenecarboxamide], in assay [1], the median effective dose (ED50) worked out at 18 mg/kg and the ED10 was determined as 25 mg/kg. In addition, the IC50 in assay [2] (setting [4]) worked out at 0.123 µM.
As for `COc1ccc(S(N)(=O)=O)cc1C(=O)N[C@@H]1CCN2C[C@@H](c3ccccc3Cl)CC[C@@H]2C1` (relative stereo) [rac-N-((9aβH)-7β-(o-chlorophenyl)octahydro-2H-quinolizin-2α-yl)-5-sulfamoyl-o-anisamide], the ED50 in assay [3] stood at 0.8 mg/kg.
In assay [1], `COc1cc(N)c(Cl)cc1C(=O)N[C@@H]1CCN2C[C@@H](c3ccccc3Cl)CC[C@@H]2C1` (relative stereo) [rac-4-amino-5-chloro-N-[(9aβH)-7β-(o-chlorophenyl)-octahydro-2H-quinolizin-2α-yl]-o-anisamide] displayed an ED50 of 12.5 mg/kg and an ED10 of 12.5 mg/kg. Besides, in assay [3], the ED50 came out at 2.3 mg/kg. In assay [2] (setting [4]), the IC50 stood at 0.03 µM.
In assay [1], `O=C1CCCN1C(=O)N[C@@H]1CCN2C[C@@H](c3ccccc3Cl)CC[C@@H]2C1` (relative stereo) [rac-N-((9aβH)-7β-(o-chlorophenyl)octahydro-2H-quinolizin-2α-yl)-2-oxo-1-pyrrolidinecarboxamide] yielded an ED50 of 23 mg/kg and an ED10 greater than 30 mg/kg.
In assay [1], `O=C(c1ccc(F)cc1)[C@@H]1CCN2C[C@@H](c3ccccc3Cl)CC[C@@H]2C1` (relative stereo) [rac-[(9aβH)-7β-(o-chlorophenyl)-octahydro-2H-quinolizin-2α-yl]p-fluorophenylketone] gave a 50% effective dose (ED50) of 3 mg/kg and an ED10 of 3 mg/kg. The IC50 in assay [2] (setting [4]) amounted to 0.011 µM.
In assay [1], `O=C(N[C@@H]1CCN2C[C@@H](c3ccccc3Cl)CC[C@@H]2C1)C1CC1` (relative stereo) [rac-N-[(9aβH)-7β-(o-chlorophenyl)-octahydro-2H-quinolizin-2α-yl]-cyclopropanecarboxamide] came in with an ED50 of 6 mg/kg and an ED10 of 5.5 mg/kg. For the same compound, the concentration for half-maximal inhibition (IC50) in assay [2] (setting [4]) came to 0.55 µM.
In assay [1], `O=c1[nH]c2cc(I)ccc2n1[C@@H]1CCN2C[C@@H](c3ccccc3F)CC[C@@H]2C1` (relative stereo) [rac-1-[(9aβH)-7β-(o-fluorophenyl)-octahydro-2H-quinolizin-2α-yl]-5-iodo-2-benzimidazolinone] yielded a median effective dose (ED50) of 0.1 mg/kg and an ED10 of 0.055 mg/kg. In assay [2], this compound returned an IC50 of 0.0086 µM.
Take `O=C(N[C@@H]1CCN2C[C@@H](c3ccccc3Cl)CC[C@@H]2C1)c1ccc(F)cc1` (relative stereo) [rac-N-((9aβH)-7β-(o-chlorophenyl)octahydro-2H-quinolizin-2α-yl)-p-fluorobenzamide]: in assay [1], the 50% effect level (ED50) was put at a dose of 12 mg/kg and the ED10 was 5.5 mg/kg. The concentration for half-maximal inhibition (IC50) in assay [2] (setting [4]) turned out to be 0.067 µM.
